Data as given in patent US9963445B2, “Chemical compounds” (SYNGENTA PARTICIPATIONS AG, priority 2013, dated 2018).

Columns and labels:
Assay type in all cases: in vivo
Solanum nigrum [1] = assay: Post-emergence herbicidal activity, glasshouse pot test; details: Application post-emergence, rate 1000 g/ha, evaluated after 13 days
Procedure: Seeds of a variety of test species were sown in standard soil in pots. After 8 days cultivation (post-emergence) under controlled conditions in a glasshouse (at 24/16° C., day/night; 14 hours light; 65% humidity), the plants were sprayed with an aqueous spray solution derived from the formulation of the technical active ingredient in acetone/water (50:50) solution containing 0.5% Tween 20 (polyoxyethelyene sorbitan monolaurate, CAS RN 9005-64-5). The test plants were then grown in a glasshouse under controlled conditions (at 24/16° C., day/night; 14 hours light; 65% humidity) and watered twice daily. After 13 days, the test was evaluated (5=total damage to plant; 0=no damage to plant).
ABUTH=Abutilon theophrasti; SOLNI=Solanum nigrum; AMARE=Amaranthus retroflexus; SETFA=Setaria faberi; ALOMY=Alopecurus myosuroides; ECHCG=Echinochloa crus-galli, ZEAMX=zea mays.

zea mays [2] = assay: as above; parameters: key: 0 = no damage to plant, 5 = total damage to plant; details: Application post-emergence, rate 1000 g/ha, evaluated after 13 days
Procedure, shortened: (§1)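 Damage rated 0 (none) to 5 (total) 13 days after spraying. Plants were treated post-emergence at 8 days after sowing, using an acetone/water (50:50) formulation with 0.5% Tween 20 diluted to an aqueous spray.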

Amaranthus retroflexus [3] = assay: as above; parameters: key: 0 = no damage to plant, 5 = total damage to plant; details: Application post-emergence, rate 1000 g/ha, evaluated after 13 days
Procedure, shortened: as §1

Setaria faberi [4] = assay: as above; parameters: key: 0 = no damage to plant, 5 = total damage to plant; details: Application post-emergence, rate 1000 g/ha, evaluated after 13 days
Procedure, shortened: as §1

Alopecurus myosuroides [5] = assay: as above; parameters: key: 0 = no damage to plant, 5 = total damage to plant; details: Application post-emergence, rate 1000 g/ha, evaluated after 13 days
Procedure, shortened: as §1

Echinochloa crus-galli [6] = assay: as above; parameters: key: 0 = no damage to plant, 5 = total damage to plant; details: Application post-emergence, rate 1000 g/ha, evaluated after 13 days
Procedure, shortened: as §1

zea mays [7] = assay: Pre-emergence herbicidal activity, glasshouse pot test; details: pre-emergence spray, rate 1000 g/ha, evaluated after 13 days, scale 0-5
Procedure, shortened: (§2)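 Test species were sown in pots and, after one day under controlled glasshouse conditions, treated with an aqueous spray of the active ingredient in acetone/water containing 0.5% Tween 20. Evaluation followed 13 days later, scoring plant damage from 0 (none) to 5 (total).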

Amaranthus retroflexus [8] = assay: as above; details: pre-emergence spray, rate 1000 g/ha, evaluated after 13 days, scale 0-5
Procedure, shortened: as §2

Setaria faberi [9] = assay: as above; details: pre-emergence spray, rate 1000 g/ha, evaluated after 13 days, scale 0-5
Procedure, shortened: as §2

Alopecurus myosuroides [10] = assay: as above; details: pre-emergence spray, rate 1000 g/ha, evaluated after 13 days, scale 0-5
Procedure, shortened: as §2

Solanum nigrum [11] = assay: as above; details: pre-emergence spray, rate 1000 g/ha, evaluated after 13 days, scale 0-5
Procedure, shortened: as §2

Echinochloa crus-galli [12] = assay: as above; details: pre-emergence spray, rate 1000 g/ha, evaluated after 13 days, scale 0-5
Procedure, shortened: as §2

Abutilon theophrasti [13] = assay: Post-emergence herbicidal activity, glasshouse pot test; parameters: key: 0 = no damage to plant, 5 = total damage to plant; details: Application post-emergence, rate 1000 g/ha, evaluated after 13 days
Procedure, shortened: as §1

Abutilon theophrasti [14] = assay: Pre-emergence herbicidal activity, glasshouse pot test; details: pre-emergence spray, rate 1000 g/ha, evaluated after 13 days, scale 0-5
Procedure, shortened: as §2

SMILES | SOLNI herbicidal damage score (Solanum nigrum [1]) | ZEAMX herbicidal damage score (zea mays [2]) | AMARE herbicidal damage score (Amaranthus retroflexus [3]) | SETFA herbicidal damage score (Setaria faberi [4]) | ALOMY herbicidal damage score (Alopecurus myosuroides [5]) | ECHCG herbicidal damage score (Echinochloa crus-galli [6]) | ZEAMX damage score, application pre-emergence (zea mays [7]) | AMARE damage score, application pre-emergence (Amaranthus retroflexus [8]) | SETFA damage score, application pre-emergence (Setaria faberi [9]) | ALOMY damage score, application pre-emergence (Alopecurus myosuroides [10]) | SOLNI damage score, application pre-emergence (Solanum nigrum [11]) | ECHCG damage score, application pre-emergence (Echinochloa crus-galli [12]) | ABUTH herbicidal damage score (Abutilon theophrasti [13]) | ABUTH damage score, application pre-emergence (Abutilon theophrasti [14])
CC1=C(Cl)C(=O)N(c2ccc(Cl)cn2)C1O (stereo not drawn) [AF65] | 5 | 1 | 5 | 5 | 4 | 4 | 0 | 5 | 2 | 2 | 4 | 1 |  | 
CC1=C(Cl)C(=O)N(c2cc(Cl)ccn2)C1O (stereo not drawn) [AF66] | 5 | 2 | 5 | 5 | 4 | 4 | 0 | 5 | 3 | 2 | 5 | 2 |  | 
CC1=C(Cl)C(=O)N(c2ccc(F)cn2)C1O (stereo not drawn) [AF67] | 5 | 1 | 5 | 4 | 3 | 4 | 0 | 5 | 3 | 2 | 3 | 1 |  | 
CC1=C(Cl)C(=O)N(c2ccc(C)cn2)C1O (stereo not drawn) [AF69] | 5 | 3 | 5 | 5 | 5 | 5 | 1 | 5 | 4 | 3 | 5 | 4 |  | 
CC1=C(Cl)C(=O)N(c2ccc(C(F)(F)F)cn2)C1O (stereo not drawn) [AF70] | 5 | 2 | 5 | 5 | 5 | 5 | 0 | 5 | 5 | 3 | 5 | 3 |  | 
CC1=C(Br)C(=O)N(c2ccc(C(F)(F)F)cn2)C1O (stereo not drawn) [AG2] | 5 | 2 | 5 | 5 | 4 | 5 | 0 | 5 | 4 | 3 | 4 | 1 |  | 
CC1=C(Cl)C(=O)N(c2nccc(C(F)(F)F)n2)C1O (stereo not drawn) [DF1] |  | 4 | 5 | 5 | 4 | 5 | 2 | 5 | 4 | 4 |  | 4 | 5 | 4
CC1=C(Cl)C(=O)N(c2nccc(C(C)(C)C)n2)C1O (stereo not drawn) [DF2] |  | 1 | 5 | 5 | 5 | 5 | 2 | 5 | 5 | 4 |  | 5 | 5 | 5
CCOc1nc(N2C(=O)C(Cl)=C(C)C2O)ncc1C#N (stereo not drawn) [DF4] |  | 0 | 0 | 0 | 0 | 0 | 0 | 0 | 0 | 0 |  | 0 | 0 | 0
CC1=C(Cl)C(=O)N(c2nccc(C(C)(C)C#N)n2)C1O (stereo not drawn) [DF5] |  | 3 | 5 | 4 | 4 | 5 | 3 | 5 | 4 | 4 |  | 5 | 5 | 5
CC1=C(Cl)C(=O)N(c2ncc(C#N)c(C(C)(C)C)n2)C1O (stereo not drawn) [DF6] |  | 1 | 5 | 5 | 4 | 5 | 2 | 5 | 4 | 3 |  | 4 | 5 | 2
COC1=C(C)C(O)N(c2nccc(C(C)(C)C)n2)C1=O (stereo not drawn) [DI1] |  | 1 | 5 | 5 | 5 | 5 | 2 | 5 | 5 | 3 |  | 5 | 5 | 5
CCOC(=O)c1cnc(N2C(=O)C(OC)=C(C)C2O)nc1C(F)(F)F (stereo not drawn) [DI2] |  | 4 | 5 | 5 | 4 | 5 | 3 | 5 | 5 | 4 |  | 5 | 5 | 5
